In US12173306B2, “Codon-optimized reduced-size ATP7A CDNA and uses for treatment of copper transport disorders” (The United States of America, as represented by the …, priority 2015, dated 2024):

System: C57BL/6-Atp7a^mo-br mice (mo-br mice)
Experiment: Survival in a mouse model of Menkes disease (mo-br mice)
Format: in vivo
Details: single treatments, FIG. 5
From the text: FIG. 5 is a graph showing survival of mo-br mice treated with rAAV9-co-rsATP7A (AAV9) and copper histidinate, untreated (UT), treated with AAV9co alone, or treated with copper histidinate alone.
FIG. 6 is a graph showing survival to weaning (dark gray bars) or prolonged survival (light gray bars) in untreated (UT) mice, mice treated with AAV5-rsATP7A and copper histidinate (AAV5+Cu), AAVrh10-rsATP7A and copper histidinate (AAVrh10+copper), AAV9-rsATP7A and copper (AAV9+Cu), and AAV9 co-rsATP7A and copper (AAV9co+Cu). rsATP7A is reduced-size ATP7A cDNA (native sequence (non-codon-optimized)).
The AAV9 co-rsATP7A described in Example 2 was administered to C57BL/6-Atp7a^mo-br mice (mo-br mice) by intracerebroventricular injection. The mice were injected bilaterally on day two of life with 1.6×10^9 vg in 5 μl of lactated Ringer's solution. Some of the mice were also treated with copper histidinate (15 μg) by subcutaneous injection during the first week of life (5 μg, d4-6). About 70% of the mice treated with combination AAV9 co-rsATP7A and copper histidinate survived at least 100 days (FIG. 5).
Different AAV serotypes were also tested for efficacy in mo-br mice.

Substance: copper histidinate
- survival time (did not survive past): ≤ 28 days
